Structures are written as SMILES.

The series relates to human MDR1 P-gp. Description: Assay D: efflux in MDCK cells transfected with the human MDR1 gene. The series is classed as in vitro ADME, canine. The conditions noted are these: dog; MDCK-MDR1 monolayers, pH 7.4, 37° C.; read-out: MDCK efflux ratio (BA/AB). Here is the method:
The MDCK assay provides information on the potential of a compound to pass the blood brain barrier. Permeability measurements across polarized, confluent MDCK-MDR1 cell monolayers grown on permeable filter supports are used as an in vitro absorption model: apparent permeability coefficients (PE) of the compounds across the MDCK-MDR1 cell monolayers are measured (pH 7.4, 37° C.) in apical-to-basal (AB) and basal-to-apical (BA) transport direction. The AB permeability (PEAB) represents drug absorption from the blood into the brain and the BA permeability (PEBA) drug efflux from the brain back into the blood via both, passive permeability as well as active transport mechanisms mediated by efflux and uptake transporters that are expressed on the MDCK-MDR1 cells, predominantly by the overexpressed human MDR1 P-gp. Identical or similar permeabilities in both transport directions indicate passive permeation, vectorial permeability points to additional active transport mechanisms. Higher PEBA than PEAB (PEBA/PEAB>5) indicates the involvement of active efflux mediated by MDR1 P-gp, which might compromises the goal to achieve sufficient brain exposure. Therefore this assay provides valuable support for selection of compounds applicable for further in vivo testing. High permeability not limited by efflux at the blood brain barrier is a favourable characteristic for compounds that are to be used for drugs acting primarily in the CNS
D. Assessment of Efflux in Madin-Darby Canine Kidney (MDCK) Cells Transfected with the Human MDR1 Gene
Apparent permeability coefficients (PE) of the compounds across the MDCK-MDR1 cell monolayers are measured (pH 7.4, 37° C.) in apical-to-basal (AB) and basal-to-apical (BA) transport direction. AB permeability (PEAB) represents drug absorption from the blood into the brain and BA permeability (PEBA) drug efflux from the brain back into the blood via both passive permeability as well as active transport mechanisms mediated by efflux and uptake transporters that are expressed on the MDCK-MDR1 cells, predominantly by the overexpressed human MDR1 P-gp. The compounds are assigned to permeability/absorption classes by comparison of the AB permeabilities with the AB permeabilities of reference compounds with known in vitro permeability and oral absorption in the human. Identical or similar permeabilities in both transport directions indicate passive permeation, vectorial permeability points to additional active transport mechanisms. Higher PEBA than PEAB indicates the involvement of active efflux mediated by MDR1 P-gp. Active transport is concentration-dependently saturable.
MDCK-MDR1 cells (1-2×10e5 cells/1 cm2 area) are seeded on filter inserts (Costar transwell polycarbonate or PET filters, 0.4 μm pore size) and cultured (DMEM) for 7 days. Subsequently, the MDR1 expression is boosted by culturing the cells with 5 mM sodium butyrate in full medium for 2 days. Compounds are dissolved in appropriate solvent (like DMSO, 1-20 mM stock solutions). Stock solutions are diluted with HTP-4 buffer (128.13 mM NaCl, 5.36 mM KCl, 1 mM MgSO4, 1.8 mM CaCl2, 4.17 mM NaHCO3, 1.19 mM Na2HPO4×7H2O, 0.41 mM NaH2PO4×H2O, 15 mM HEPES, 20 mM glucose, 0.25% BSA, pH 7.4) to prepare the transport solutions (0.1-300 μM compound, final DMSO<=0.5%). The transport solution (TL) is applied to the apical or basolateral donor side for measuring A-B or B-A permeability (3 filter replicates), respectively. The receiver side contains the same buffer as the donor side. Samples are collected at the start and end of experiment from the donor and at various time intervals for up to 2 hours also from the receiver side for concentration measurement by HPLC-MS/MS or scintillation counting. Sampled receiver volumes are replaced with fresh receiver solution.
For `CCN(C(=O)c1ccccc1-n1nccn1)[C@@H](C)CNc1ncc(C(F)(F)F)cn1` [Example 1], the efflux ratio was less than 3. With `CCN(C(=O)c1nc(C)ccc1-n1nccn1)[C@@H](C)CNc1ncc(C(F)(F)F)cn1` [Example 9], the efflux ratio was less than 3. For the molecule `CCN(C(=O)c1cnc(C)nc1-c1ccccc1)[C@@H](C)CNc1ncc(C(F)(F)F)cn1` [Example 17], the efflux ratio was less than 3. For `CCN(C(=O)c1cccc(F)c1-n1nccn1)[C@@H](C)CNc1ncc(C(F)(F)F)cn1` [Example 18], the efflux ratio was less than 3.

These data come from patent publication US9884854B2, “N-[(pyrimidinylamino)propanyl]-and N[(pyrazinylamino)proppanyl]arylcarboxamides” (Boehringer Ingelheim International GmbH, priority 2016, dated 2018).
